# According to patent US11040056B2, “Benzimidazoles that enhance the activity of oligonucleotides” (The University of North Carolina at Chapel Hill, priority 2018, dated 2021):
# How the values were obtained:
# Format in all cases: cell-based
# [1] = Alamar Blue cytotoxicity assay; conditions: human, HeLa Luc705 cells; Alamar Blue cytotoxicity; read-out: TC50
# Description: (§1) FIG. 1B-1E. Effects with SSOs. FIG. 1B Structure of UNC2383. FIG. 1C Compound 2383 enhances SSO effects. Cells were incubated in 24-well plates with 100 nM SSO623 or its mismatched control (MM) for 16 h in DMEM+10% FBS, rinsed and then treated with various concentrations of 2383 for 2 h. The cells were then rinsed and incubation continued for an additional 4 h in DMEM+10% FBS. Cells were rinsed twice in PBS and luciferase activity (RLU) and cell protein determined. The larger round symbol indicates the MM oligonucleotide. Means+/−SE. N=3. FIG. 1D Kinetics of 2383 action. Cells were preloaded with 100 nM SSO623 and then exposed to 2383 for various periods after which the compound was removed. The cells were further incubated and then luciferase and protein determined. The total time of incubation in each case was 6 h. FIG. 1E Cytotoxicity of 2383. HeLa Luc705 or NIH-3T3-MDR cells were exposed to 2383 as in (FIG. 1C) then incubated for 24 h in DMEM plus 10% FBS and tested using the Alamar Blue cytotoxicity assay. Means+/−SE. N=3.
# (§2) FIG. 3. Effect and Cytotoxicity of Analogs. The effect of selected UNC2383 analogs on luciferase induction by SSO623 was measured as described in Methods and in the legend of FIG. 1B-1E. Cytotoxicity was measured using the Alamar Blue method as in FIG. 1E. MM10 is the effect of 10 uM compound in the presence of a mismatched oligonucleotide. Means and SE. N=3.
# (§3) SSO-mediated luciferase induction assays were conducted as previously described. (18) In short, HeLaLuc705 cells in 24 well culture plates were preincubated with SSO623 followed by brief treatment with the small molecule; at intervals thereafter, luciferase activity and protein content were determined. ASO mediated inhibition of MDR1 gene expression utilized an Alexa 488 labeled anti-P-glycoprotein antibody and flow cytometry to measure Pgp expression as described. (20) The anti-MDR1 sequence is 5′-CCATCccgacctcgcGCTCC-3′(SEQ ID NO: 5) (all phosphorothiopate with 2-O-Me residues in capitals). Cytotoxicity of 2383 was monitored using the Alamar Blue assay. (30)
# [2] = system: HeLa Luc705 cells; assay: Alamar Blue cytotoxicity assay
# Description: as §1, §2, §3
# [3] = system: lysosomes of HeLa Luc 705 cells; assay: Lysotracker Red accumulation assay; conditions: 2 μM
# Description: FIG. 9A-9D. Effects on lysosomes. FIG. 9A: Lysotracker uptake. Accumulation of Lysotracker Red in HeLa Luc 705 cells was measured after a 2 h exposure of cells to the indicated concentrations of various analogs. The lysosomotropic compound chloroquine was included as a positive control. Means of triplicate determinations are shown. The color-coded numbers refer to the fold increase in luciferase induction attained by the concentration of analog associated with the adjacent symbol on the graph. The numbers are taken from the data of FIG. 1C for UNC2383 and FIG. 4 for UNC4267, UNC4258, and UNC4428. FIG. 9B: LT50 vs TC50. […] Nonlinear regression was calculated using Prism software. The R^2 value for the plot is 0.91. FIG. 9C: 2383 vs chloroquine; luciferase induction. HeLa Luc705 cells were exposed to SSO623 and then treated with various concentrations of UNC2383 or chloroquine for 2 h and then tested for luciferase induction following the methods described in FIG. 1B-FIG. 1E. […]
# The integrity of lysosomes was evaluated using the fluorescent probe Lysotracker Red (Thermo Fisher). […] Cells were thoroughly rinsed in PBS, lysed in 0.2% TX 100, and centrifuged briefly at 4000 rpm, and 100 uL of the supernate was distributed to black 96 well plates for analysis of fluorescence using a FLUOstar Omega 96 well microplate reader.
# [4] = system: NIH-3T3-MDR cells; assay: Alamar Blue cytotoxicity assay; conditions: 2 h exposure, then 24 h, FIG. 1E
# Description: as §1
# SSO-mediated luciferase induction assays were conducted as previously described. (18) In short, HeLaLuc705 cells in 24 well culture plates were preincubated with SSO623 followed by brief treatment with the small molecule; at intervals thereafter, luciferase activity and protein content were determined. […] Cytotoxicity of 2383 was monitored using the Alamar Blue assay. […]
# [5] = system: EGFP654 mouse tracheal epithelial cells (MTEC); assay: Splicing correction (EGFP expression) in EGFP654 mouse tracheal epithelial cells; conditions: 1 uM SSO PS623 basolateral overnight, 3 uM OEC apical 2 hr
# Description: FIG. 13. EGFP654 Mouse tracheal cells. Well-differentiated tracheal epithelial cells derived from the EGFP654 mouse were treated basolaterally with 1 uM SSO PS623 (overnight) and apically with 3 uM OEC2383 (2 hr) or vehicle. Confocal microscopy images (xy, xz planes), bar=20 um.
# FIG. 15B: P-PMO+OEC mediated splicing correction in EGFP654 MTEC. Well-differentiated cultures of primary tracheal cells (MTEC) derived from the EGFP654 mouse were treated with only one dose of P-PMO“654” (0.5 uM, overnight) followed by vehicle (−) or OEC2383 or OEC7938 (+), (10 uM, 2 hs). Both the SSO and OEC were added in cell medium either into the basolateral (BL, 400 ul) or the apical (AP, 30 ul) sides. MTEC were imaged in face at low mag. with a 10× lens in a fluorescence microscope, after 48 hs and 65 days post-treatment. All wells had the same total cell numbers. Vehicle controls<10 cells/well; n=3, bar=70 um. 1) Basolateral delivery of one treatment of P-PMO and OEC corrected>70% MTEC/well at 48 hs post-treatment. EGFP expression was still evident in large groups of cells after 65 days.
# Methods: SSO623 (1 uM) was incubated basolaterally overnight in well-differentiated primary tracheal epithelial cells (MTEC) derived from the EGFP654 mouse (Wang et al, 2017); OEC2383 was administered apically or basolaterally (1-4 uM for 2-3 hs). […]
structure (smiles),measurement,setting,value
O=C(Nc1nc2ccccc2n1CCN1CCCC1)c1cc2cc(Cl)ccc2o1 [UNC2383],CC50 at 2 h,[1],15 µM
same,window between effective and toxic concentrations compared to UNC10217938,[2],narrower
same,concentrations showing little toxicity,"[2]; 2 h exposure, then 24 h, FIG. 1E",≤ 10 µM
same,TC50/EC50,[2]; ratio of cytotoxicity TC50 to luciferase induction EC50,7.5
same,effect on lysotracker accumulation,[3],little effect
same,concentrations showing little toxicity,[4],≤ 10 µM
same,EGFP expression / enhancing activity in MTEC,[5],notably expressed
